Target: T1, acyl-CoA:cholesterol O-acyltransferase (ACAT) (Oryctolagus cuniculus, UniProt G1SFD9)
T1 construct: The intestinal mucosa of a white rabbit was homogenized and microsomal fraction was obtained by stepwise centrifugation; from tissue; host or cells: intestinal mucosa of white rabbit, microsomal fraction
T1 sequence (G1SFD9 1-524): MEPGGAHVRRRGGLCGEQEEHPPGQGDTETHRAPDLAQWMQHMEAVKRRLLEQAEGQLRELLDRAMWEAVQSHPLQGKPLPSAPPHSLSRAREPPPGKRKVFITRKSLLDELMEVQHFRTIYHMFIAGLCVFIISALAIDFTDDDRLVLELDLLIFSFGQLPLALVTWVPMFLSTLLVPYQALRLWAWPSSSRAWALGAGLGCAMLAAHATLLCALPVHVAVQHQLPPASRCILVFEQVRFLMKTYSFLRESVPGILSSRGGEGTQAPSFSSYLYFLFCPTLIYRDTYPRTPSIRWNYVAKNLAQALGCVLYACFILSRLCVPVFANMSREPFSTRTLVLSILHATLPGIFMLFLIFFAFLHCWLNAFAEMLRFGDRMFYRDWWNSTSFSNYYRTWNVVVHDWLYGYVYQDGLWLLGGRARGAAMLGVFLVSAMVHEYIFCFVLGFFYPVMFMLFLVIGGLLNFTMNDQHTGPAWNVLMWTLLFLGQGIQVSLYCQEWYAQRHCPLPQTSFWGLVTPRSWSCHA
Experiment: Inhibitory activity on acyl-CoA:cholesterol O-acyltransferase (ACAT), intestinal mucosa microsomal fraction, [1-14C]oleyl-CoA incorporation into cholesterol esters
Assay type: biochemical, white rabbit
Conditions: read-out: Inhibition rate %
Experimental: Inhibitory activity on acyl-CoA:cholesterol Oacyltransferase (ACAT)
The enzyme used in the test was prepared according to the method of Heider et al. [J. Lipid, Res. 24, 1127 (1983)]. The intestinal mucosa of a white rabbit was homogenized and microsomal fraction was obtained by stepwise centrifugation. The microsomal fraction was suspended in 0,154M phosphate buffer (pH 0 7.4) and stored at -80° C. until use.
ACAT activity was determined by a modification of the method of Helgerud et al. [J. Lipid Res. 22, 271 (1981)] by measuring radioactivity incorporated into cholesterol esters from [1-14C]oleyl-CoA, as an indication. As to the ACAT-inhibiting activity of each compound to be tested, the inhibition rate was calculated by the following equation.

| SMILES | inhibition at 0.01 µM [%] | inhibition at 1 µM [%] |
| --- | --- | --- |
| CCc1cccc(CC)c1NC(=O)Nc1sc2ccc(C(C)C)cc2c1-c1ccccc1Cl [Compound 76, N-[3-(2-Chlorophenyl)-5-isopropyl-1-benzothiophen-2-yl]-N'-(2,6-diethylphenyl)urea] | 71 |  |
| O=C(Nc1sc2cc3c(cc2c1-c1ccccc1Cl)CCC3)Nc1c(F)cc(F)cc1F [Compound 94, N-[3-(2-Chlorophenyl)-6,7-dihydro-5H-cyclopenta[f][1]benzothiophen-2-yl]-N'-(2,4,6-trifluorophenyl)urea] | 76.7 |  |
| Cc1cccc(N(C)C)c1NC(=O)Nc1oc2ccc(Cl)cc2c1-c1ccccc1Cl [Compound 19, N-[5-chloro-3-(2-chlorophenyl)benzofuran-2-yl]-N'-(2-dimethylamino-6-methylphenyl)urea] | 71.3 |  |
| COc1ccccc1NC(=O)Nc1oc2ccc(Cl)cc2c1-c1ccccc1Cl [Compound 8, N-[5-Chloro-3-(2-chlorophenyl)benzofuran-2-yl]-N'-(2-methoxyphenyl)urea] | 24.9 | 97.4 |
| Cc1cc(C)c2c(c1)c(-c1ccccc1Cl)c(NC(=O)Nc1ccc(F)cc1F)n2C [Compound 124, N-[3-(2-Chlorophenyl)-5,7-dimethyl-1-methylindole-2-yl]-N'-(2,4-difluorophenyl)urea] |  | 81.7 |
| Cc1ccc2oc(NC(=O)Nc3c(C(C)C)cccc3C(C)C)c(-c3ccccc3Cl)c2c1 [Compound 22, N-[3-(2-Chlorophenyl)-5-methylbenzofuran-2-yl]-N'-(2,6-diisopropylphenyl)urea] | 69.3 |  |
| Cc1cc2oc(NC(=O)Nc3c(C)cccc3C)c(-c3ccccc3Cl)c2cc1C [Compound 36, N-[3-(2-Chlorophenyl)-5,6-dimethylbenzofuran-2-yl]-N'-(2,6-dimethylphenyl)urea] | 37.6 | 98.9 |
| O=C(Nc1ccccc1C(F)(F)F)Nc1oc2ccc(Cl)cc2c1-c1ccccc1Cl [Compound 7, N-[5-Chloro-3-(2-chlorophenyl)benzofuran-2-yl]-N'-(2-trifluoromethylphenyl)urea] | 37.2 | 99.1 |
| CC(C)c1cccc(C(C)C)c1NC(=O)Nc1oc2cc3c(cc2c1-c1ccccc1Cl)CCC3 [Compound 53, N-[3-(2-Chlorophenyl)-6,7-dihydro-5H-cyclopenta[f]benzofuran-2-yl]-N'-(2,6-diisopropylphenyl)urea] | 43.7 |  |
| Cc1cc(C)c2oc(NC(=O)Nc3ccc(F)cc3F)c(-c3ccccc3Cl)c2c1 [Compound 46, N-[3-(2-Chlorophenyl)-5,7-dimethylbenzofuran-2-yl]-N'-(2,4-difluorophenyl)urea] |  | 92.7 |
| O=C(Nc1ccc(F)cc1F)Nc1sc2cc3c(cc2c1-c1ccc(Cl)cc1Cl)CCC3 [Compound 107, N-[3-(2,4-Dichlorophenyl)-6,7-dihydro-5H-cyclopenta[f][1]benzothiophen-2-yl]-N'-(2,4-difluorophenyl)urea] | 36.2 |  |
| Cc1ccccc1-c1c(NC(=O)Nc2c(C(C)C)cccc2C(C)C)oc2ccc(Cl)cc12 [Compound 61, N-[5-Chloro-3-(2-methylphenyl)benzofuran-2-yl]-N'-(2,6-diisopropylphenyl)urea] | 65.6 |  |
| Cc1cccc(C)c1NC(=O)Nc1sc2cc3c(cc2c1-c1ccccc1Cl)CCC3 [Compound 87, N-[3-(2-Chlorophenyl)-6,7-dihydro-5H-cyclopenta[f][1]benzothiophen-2-yl]-N'-(2,6-dimethylphenyl)urea] | 60.4 |  |
| CCc1cccc(CC)c1NC(=O)Nc1sc2ccc(C)cc2c1-c1ccccc1Cl [Compound 72, N-[3-(2-Chlorophenyl)-5-methyl-1-benzothiophen-2-yl]-N'-(2,6-diethylphenyl)urea] | 60.6 |  |
| CC(C)c1cccc(C(C)C)c1NC(=O)Nc1oc2ccc(F)cc2c1-c1ccccc1Cl [Compound 2, N-[3-(2-Chlorophenyl)-5-fluorobenzofuran-2-yl]-N'-(2,6-diisopropylphenyl)urea] | 58.3 |  |
| Cc1cccc(C(C)C)c1NC(=O)Nc1sc2cc3c(cc2c1-c1ccccc1Cl)CCCC3 [Compound 98, N-[3-(2-Chlorophenyl)-5,6,7,8-tetrahydronaphtho[2,3-b]thiophen-2-yl]-N'-(2-isopropyl-6-methylphenyl)urea] | 66 |  |
| O=C(Nc1ccc(F)cc1F)Nc1sc2cc3c(cc2c1-c1ccccc1Cl)CCCC3 [Compound 99, N-[3-(2-Chlorophenyl)-5,6,7,8-tetrahydronaphtho[2,3-b]thiophen-2-yl]-N'-(2,4-difluorophenyl)urea] | 90.1 |  |

| SMILES | inhibition at 0.01 µM [%] | inhibition at 1 µM [%] |
| --- | --- | --- |
| Cc1cccc(N(C)C)c1NC(=O)Nc1sc2cc3c(cc2c1-c1ccccc1Cl)CCC3 [Compound 91] | 65 |  |
| CC(C)c1cccc(C(C)C)c1NC(=O)Nc1oc2ccc(Cl)cc2c1-c1ccccc1F [Compound 58, N-[5-Chloro-3-(2-fluorophenyl)benzofuran-2-yl]-N'-(2,6-diisopropylphenyl)urea] | 69.2 |  |
| CCc1cccc(CC)c1NC(=O)Nc1oc2ccc(F)cc2c1-c1ccccc1Cl [Compound 1] | 49.8 |  |
| Cc1cc(C)c2oc(NC(=O)Nc3c(F)cc(F)cc3F)c(-c3ccccc3Cl)c2c1 [Compound 48, N-[3-(2-Chlorophenyl)-5,7-dimethylbenzofuran-2-yl]-N'-(2,4,6-trifluorophenyl)urea] | 6.8 | 95.6 |
| CCc1ccc2oc(NC(=O)Nc3c(C(C)C)cccc3C(C)C)c(-c3ccccc3Cl)c2c1 [Compound 25, N-[3-(2-Chlorophenyl)-5-ethylbenzofuran-2-yl]-N'-(2,6-diisopropylphenyl)urea] | 73.3 |  |
| CCc1cccc(CC)c1NC(=O)Nc1sc2ccc(Cl)cc2c1-c1ccccc1Cl [Compound 65, N-[5-Chloro-3-(2-chlorophenyl)-1-benzothiophen-2-yl]-N'-(2,6-diethylphenyl)urea] | 56.5 | 99.1 |
| Cc1cc2oc(NC(=O)Nc3c(C(C)C)cccc3C(C)C)c(-c3ccccc3Cl)c2cc1C [Compound 38, N-[3-(2-Chlorophenyl)-5,6-dimethylbenzofuran-2-yl]-N'-(2,6-diisopropylphenyl)urea] | 77.2 | 99.5 |
| Cc1cc2sc(NC(=O)Nc3c(C)cccc3C(C)C)c(-c3ccccc3Cl)c2cc1C [Compound 82, N-[3-(2-Chlorophenyl)-5,6-dimethyl-1-benzothiophen-2-yl]-N'-(2-isopropyl-6-methylphenyl)urea] | 67 |  |
| Cc1ccc(S(=O)(=O)n2c(NC(=O)Nc3ccc(F)cc3F)c(-c3ccccc3Cl)c3cc(C)cc(C)c32)cc1 [Compound 122, N-[3-(2-Chlorophenyl)-5,7-dimethyl-1-(p-toluenesulfonyl)indole-2-yl]-N'-(2,4-difluorophenyl)urea] |  | 75.4 |
| CCc1cccc(CC)c1NC(=O)Nc1sc2cc3c(cc2c1-c1ccccc1Cl)CCC3 [Compound 88, N-[3-(2-Chlorophenyl)-6,7-dihydro-5H-cyclopenta[f][1]benzothiophen-2-yl]-N'-(2,6-diethylphenyl)urea] | 85.8 |  |
| CC(C)c1cccc(C(C)C)c1NC(=O)Nc1oc2ccc(Cl)cc2c1-c1ccccc1Cl [Compound 13, N-[5-Chloro-3-(2-chlorophenyl)benzofuran-2-yl]-N'-(2,6-diisopropylphenyl)urea] | 84.9 | 99.4 |
| Cc1cc2sc(NC(=O)Nc3ccc(F)cc3F)c(-c3ccccc3Cl)c2cc1C [Compound 84, N-[3-(2-Chlorophenyl)-5,6-dimethyl-1-benzothiophen-2-yl]-N'-(2,4-difluorophenyl)urea] | 78.6 |  |
| O=C(Nc1sc2cc3c(cc2c1-c1ccccc1Cl)CCC3)Nc1c(F)cccc1F [Compound 93, N-[3-(2-Chlorophenyl)-6,7-dihydro-5H-cyclopenta[f][1]benzothiophen-2-yl]-N'-(2,6-difluorophenyl)urea] | 69.7 |  |
| Cc1cc(C)c2oc(NC(=O)Nc3c(F)cccc3F)c(-c3ccccc3Cl)c2c1 [Compound 47, N-[3-(2-Chlorophenyl)-5,7-dimethylbenzofuran-2-yl]-N'-(2,6-difluorophenyl)urea] |  | 93 |
| Cc1ccccc1-c1c(NC(=O)Nc2c(C)cccc2C(C)C)sc2cc3c(cc12)CCC3 [Compound 111, N-(2-Isopropyl-6-methylphenyl)-N'-[3-(2methylphenyl)-6,7-dihydro-5H-cyclopenta[f][1]benzothiophen-2-yl]urea] | 69.2 |  |
| COc1ccc2oc(NC(=O)Nc3c(C(C)C)cccc3C(C)C)c(-c3ccccc3Cl)c2c1 [Compound 30, N-[3-(2-Chlorophenyl)-5-methoxybenzofuran-2-yl]-N'-(2,6-diisopropylphenyl)urea] | 58.4 |  |

— patent publication USRE36832E, “N-heteroaryl-N'-phenylurea derivatives, their production and use” (Nihon Nohyaku Co., LTD, priority 1993, dated 2000)
